Test results: paper PMC13316043, “Structural basis of NSD2 degradation via targeted recruitment of SCF-FBXO22” (Nature Communications, 2026)

Tested on: His-tagged NSD2 PWWP1
Test: TR-FRET cooperativity (competition) assay: displacement of biotinylated NSD2 ligand UNC7096
Assay type: binding, human
Source text: Because of the direct interactions observed between FBXO22 and NSD2, we hypothesized that some degree of cooperative binding could facilitate complex stabilization. Therefore, we developed a TR-FRET assay to monitor the interaction between his-tagged NSD2 and a biotinylated NSD2 ligand, UNC7096, that is missing the modality for FBXO22-recruitment (Supplementary Fig. 3D)[20]. Given the positive FRET signal observed when both NSD2 PWWP1 and UNC7096 are present, we used this setup to evaluate the displacement of UNC7096 by UNC10088 in the presence or absence of the FBXO22 FIST domain (Supplementary Fig. 3D). […] Importantly, this FBXO22-dependent enhancement of NSD2 antagonism by UNC10088 was absent when C326 was substituted for alanine (Supplementary Fig. 3F). Taken together, the SCF^FBXO22-NSD2 PWWP1 structure both confirms prior results and provides additional insight into the surfaces that contribute to a cooperative interaction between NSD2 and FBXO22 to promote potent NSD2 polyubiquitination and degradation.
The TR-FRET assay was adapted to assess cooperativity from the following workflows previously reported[39],[40]. Assays were performed in white, low-volume, flat-bottom, nonbinding 384-well microplates (Greiner, Catalog No. 784904) with a final assay volume of 10 μL per well. The assay buffer contained 20 mM Tris–HCl (pH 7.5) and 150mM NaCl, 0.05% Tween-20 (v/v), 2mM DTT, and 1% DMSO (v/v). LANCE Europium (Eu)-W8044 Streptavidin conjugate (2 nM) and LANCE Ultra ULight-anti6x-His labeled antibodies (10 nM) were used as donor and acceptor fluorophores associated with the tracer ligand and protein, respectively. Final assay concentrations of 63 nM His-tagged NSD2 PWWP1 and 31 nM of UNC7096 (a biotinylated version of the NSD2 ligand) as a tracer ligand were used for compound testing. UNC8732, UNC10088, and UNC10415667 were diluted in a 10-point, 3-fold serial dilution, and indicated compounds were pre-incubated with FBXO22 FIST for 30 min. A master mix of NSD2 PWWP1, UNC7096, and TR-FRET reagents was made prior to its addition to the compounds and/or FBXO22 FIST. The plates were sealed with metallic covers, mixed gently for 1 min, and incubated in the dark for 1 h. After 1 h, the plate was read on an EnVision 2103 plate reader with a 320 nm excitation filter and 615 nm/ 665 nm emission filters simultaneously with a dual mirror D400/D630 and a 100 μs delay. […] Raw TR-FRET signals were normalized to a high inhibition control (10 μM of UNC10088) and negative control (1% DMSO). The normalized TR-FRET signals were plotted against the compound concentrations. […] Ki values were calculated from the IC50s using the tight-binding model[41],[42]. The cooperativity factor (α) was calculated as the ratio of Ki (Binary)/ Ki (Ternary), with α > 1 indicating positive cooperativity between NSD2 PWWP1 and FBXO22 FIST based on its disruption of NSD2 binding to UNC7096.

## O=C1COc2cc(C(=O)N(Cc3ccc(C(=O)Nc4ccc5c(c4)CCN(C(=O)CCCCC(O)S(=O)(=O)O)C5)cc3)C3CC3)ccc2N1 (stereo not drawn) [UNC10088]
IC50 alone vs with FBXO22 FIST
  fold reduction of IC50 upon addition of FBXO22: about 2.5 fold
NSD2 PWWP1 with vs without FBXO22 FIST, with preincubation
  cooperativity factor (α) = Ki (Binary)/Ki (Ternary): 3.3
Compound not preincubated with FBXO22
  cooperativity factor (α) without preincubation: 3.1
